Experimental data taken from patent US20190125753A1, “COMPOUNDS AND METHODS FOR INCREASING HEMATOPOIESIS” (University of Southern California, priority 2016, published 2019).

Legend:
bone marrow HSPC = assay: Competitive repopulation assay after 8.5Gy radiation (HSPC exhaustion); type: in vivo
mouse bone marrow cells = assay: 3-day in vitro culture of bone marrow cells, FACS; type: cell-based; settings: 0.5 μM, 3 days, 200,000 live cells analyzed
Method: Mouse bone marrow cells were isolated and cultured in QBSF-58 medium with DMSO or YH250 0.5 μM (medium contains 10 ng/ml of SCF, TPO, Flt3 ligand, and IL-6) for 3 days and cells are recovered and analyzed for HSC surface markers with FACS.

[1] = system: Axin2 and survivin (Birc5) gene expression; assay: qPCR gene expression in bone marrow Sca-1posit cells of treated mice; type: in vivo, mouse; settings: 2 mg/kg overnight, Sca-1+ population
Method: Axin2 is a classical Wnt/catenin target genes and plays important regulatory roles in Wnt signaling. The inhibitor of apoptosis (IAP) family member survivin (Birc5) is another Wnt/catenin target gene. […] To study YH250 effects in bone marrow stem cell population gene expression, female C57/Black mice were treated with DMSO or YH250 (2 mg/kg) overnight and bone marrow Sca-1posit cells were isolated. Then, total RNA were extracted for cDNA synthesis and qPCR assay (FIG. 5A). As shown in FIGS. 5B-5C, both Axin2 and survivin gene expression were up regulated by YH250 in the Sca-1^+ population of the treated animals.

bone marrow HSC = assay: Competitive repopulation assay after multi-dose 5-FU; type: in vivo, mouse; settings: multi-dose YH250 with 5-FU
Excerpt: At the last round of 5-FU treatment from FIG. 25A, bone marrow cells from survived animals were isolated (CD45.2) and mixed with competitor cells (CD45.1/CD45.2 hybrid) and injected to CD45.1 mice for competitive repopulation assay. This is to assess whether YH250, by multiple uses in this experiment setting, will result in changes of HSC activity and lead to HSC exhaustion (FIG. 26A).

R1 mESCs = assay: Maintenance of mouse ES cell pluripotency, feeder free, 5 days; type: cell-based
Method: We also determined that IQ-1 indirectly, via binding to the PR72/130 subunit of PP2A, inhibited the p300/β-catenin interaction (Id). Therefore, we anticipated that YH249/250 should also maintain mESC pluripotency in a Wnt dependent manner. To test his, R1 mESCs were cultured under feeder free conditions in the presence or absence of YH249/250 for 5 days. […] Pluripotency markers, Oct4, Nanog, Sox2, SSEA-1 and ALP, were all expressed in the cells treated with Wnt3a and YH250 (FIG. 28b). Moreover, Wnt3a could be replaced with the selective GSK-3 inhibitor CHIR99021, which activates the Wnt signaling pathway (FIG. 28a, lower panel). […] In the event, similarly to ID-8, the combination of Wnt3a and YH249/250 provided morphologically undifferentiated colonies of H9 human embryonic stem cells (hESCs) without FGF and TGF (FIG. 28c). hPSC markers were detected by ALP staining and immunofluorescence (FIG. 28d). In addition to H9 cells, two other hESC lines and a human induced pluripotent stem (iPS) cell line could be also maintained undifferentiated morphology utilizing the same conditions (not shown).
Specifically, FIG. 28A-28D, show maintenance of ESC's pluripotency by YH249 and YH250. […] 28A, Typical colony morphologies of RI mouse ES cells cultured 5 days in [upper panel] 3 μM CHIR99021 and 1 μM PD0325901 (2i) medium, basal medium (2i medium without CHIR99021 and PD0325901), basal medium supplemented with 50 ng/ml Wnt3a alone, [middle panel] combination of 50 ng/ml Wnt3a and 2 μM IQ-1, 500 nM YH249 or 200 nM YH250, [lower panel] 3 μM of CHIR99021 alone, and combination of 3 μM CHIR99021 and 500 nM YH249 or 200 nM YH250. […] The blue signal (Wnt3a panels) represents DAPI nuclear staining. Bars indicate […]. […] The blue signal (Wnt3a panels) represents DAP1 nuclear staining. Scale bars indicate 100 am.

[2] = target: T1, interaction between β-catenin and p300 (Mus musculus, UniProt B2RWS6); assay: Co-immunoprecipitation (pull-down) in C2Cl2 myoblast cells; type: cell-based; settings: C2Cl2 cells treated 24 hours
T1 construct: endogenous in cells; host or cells: mouse myoblast C2C12 cells
Method: YH249 and YH250 were selected from the compounds described herein for further testing. Co-immunoprecipitation (CO-IP) was performed with mouse myoblast C2Cl2 cells. Cells were treated with DMSO (control), or YH249, or YH250 for 24 hours. Cell lyses were pulled down with anti-p300 or anti-CBP antibodies, run on gel and probed with anti-β-catenin antibody. […] A biotinylated version of YH249 (Bio-249) was prepared via the propargyl amide variant. Using a biotin with a linker and a terminal azide residue, we were able to couple the biotin to the YH249 core via a 3+2 cyclization reaction to provide Bio-249. Bio-249 was incubated with lysates from C2Cl2 myoblasts, either in the presence or absence of competitor YH249 for 4 h at 4° C. and then bound to streptavidin agarose beads. After extensive washing the bound proteins were eluted and run out on an […].

cord blood cells = assay: Cord blood cells incubated 24 hrs then BMT to transgenic NSG mice; type: in vivo, human; settings: 10 μM 24 hrs in 4GF or 6GF medium; day 28th post BMT
Method: To examine p300/β-catenin antagonist YH250 effects on cord blood HSC in BMT, cord blood cells were incubated with 4GF or 6GF medium and 10 μM of YH250 for 24 hrs, then cells were recovered and transplanted to irradiated NOD.Cg-Prkdc^scidIL1rg^tmlwjlTg(CMV-[…], CSF2, KITLG)1Eva, MloySzJ; JAX stock#013062) mice, these are transgenic NSG mice expressing human interleukin-3, human GM-CSF and human stem cell factor. Blood were collected at day 28th post BMT to determine engraftment.

T1 sequence (B2RWS6 2-2412 limits assumed): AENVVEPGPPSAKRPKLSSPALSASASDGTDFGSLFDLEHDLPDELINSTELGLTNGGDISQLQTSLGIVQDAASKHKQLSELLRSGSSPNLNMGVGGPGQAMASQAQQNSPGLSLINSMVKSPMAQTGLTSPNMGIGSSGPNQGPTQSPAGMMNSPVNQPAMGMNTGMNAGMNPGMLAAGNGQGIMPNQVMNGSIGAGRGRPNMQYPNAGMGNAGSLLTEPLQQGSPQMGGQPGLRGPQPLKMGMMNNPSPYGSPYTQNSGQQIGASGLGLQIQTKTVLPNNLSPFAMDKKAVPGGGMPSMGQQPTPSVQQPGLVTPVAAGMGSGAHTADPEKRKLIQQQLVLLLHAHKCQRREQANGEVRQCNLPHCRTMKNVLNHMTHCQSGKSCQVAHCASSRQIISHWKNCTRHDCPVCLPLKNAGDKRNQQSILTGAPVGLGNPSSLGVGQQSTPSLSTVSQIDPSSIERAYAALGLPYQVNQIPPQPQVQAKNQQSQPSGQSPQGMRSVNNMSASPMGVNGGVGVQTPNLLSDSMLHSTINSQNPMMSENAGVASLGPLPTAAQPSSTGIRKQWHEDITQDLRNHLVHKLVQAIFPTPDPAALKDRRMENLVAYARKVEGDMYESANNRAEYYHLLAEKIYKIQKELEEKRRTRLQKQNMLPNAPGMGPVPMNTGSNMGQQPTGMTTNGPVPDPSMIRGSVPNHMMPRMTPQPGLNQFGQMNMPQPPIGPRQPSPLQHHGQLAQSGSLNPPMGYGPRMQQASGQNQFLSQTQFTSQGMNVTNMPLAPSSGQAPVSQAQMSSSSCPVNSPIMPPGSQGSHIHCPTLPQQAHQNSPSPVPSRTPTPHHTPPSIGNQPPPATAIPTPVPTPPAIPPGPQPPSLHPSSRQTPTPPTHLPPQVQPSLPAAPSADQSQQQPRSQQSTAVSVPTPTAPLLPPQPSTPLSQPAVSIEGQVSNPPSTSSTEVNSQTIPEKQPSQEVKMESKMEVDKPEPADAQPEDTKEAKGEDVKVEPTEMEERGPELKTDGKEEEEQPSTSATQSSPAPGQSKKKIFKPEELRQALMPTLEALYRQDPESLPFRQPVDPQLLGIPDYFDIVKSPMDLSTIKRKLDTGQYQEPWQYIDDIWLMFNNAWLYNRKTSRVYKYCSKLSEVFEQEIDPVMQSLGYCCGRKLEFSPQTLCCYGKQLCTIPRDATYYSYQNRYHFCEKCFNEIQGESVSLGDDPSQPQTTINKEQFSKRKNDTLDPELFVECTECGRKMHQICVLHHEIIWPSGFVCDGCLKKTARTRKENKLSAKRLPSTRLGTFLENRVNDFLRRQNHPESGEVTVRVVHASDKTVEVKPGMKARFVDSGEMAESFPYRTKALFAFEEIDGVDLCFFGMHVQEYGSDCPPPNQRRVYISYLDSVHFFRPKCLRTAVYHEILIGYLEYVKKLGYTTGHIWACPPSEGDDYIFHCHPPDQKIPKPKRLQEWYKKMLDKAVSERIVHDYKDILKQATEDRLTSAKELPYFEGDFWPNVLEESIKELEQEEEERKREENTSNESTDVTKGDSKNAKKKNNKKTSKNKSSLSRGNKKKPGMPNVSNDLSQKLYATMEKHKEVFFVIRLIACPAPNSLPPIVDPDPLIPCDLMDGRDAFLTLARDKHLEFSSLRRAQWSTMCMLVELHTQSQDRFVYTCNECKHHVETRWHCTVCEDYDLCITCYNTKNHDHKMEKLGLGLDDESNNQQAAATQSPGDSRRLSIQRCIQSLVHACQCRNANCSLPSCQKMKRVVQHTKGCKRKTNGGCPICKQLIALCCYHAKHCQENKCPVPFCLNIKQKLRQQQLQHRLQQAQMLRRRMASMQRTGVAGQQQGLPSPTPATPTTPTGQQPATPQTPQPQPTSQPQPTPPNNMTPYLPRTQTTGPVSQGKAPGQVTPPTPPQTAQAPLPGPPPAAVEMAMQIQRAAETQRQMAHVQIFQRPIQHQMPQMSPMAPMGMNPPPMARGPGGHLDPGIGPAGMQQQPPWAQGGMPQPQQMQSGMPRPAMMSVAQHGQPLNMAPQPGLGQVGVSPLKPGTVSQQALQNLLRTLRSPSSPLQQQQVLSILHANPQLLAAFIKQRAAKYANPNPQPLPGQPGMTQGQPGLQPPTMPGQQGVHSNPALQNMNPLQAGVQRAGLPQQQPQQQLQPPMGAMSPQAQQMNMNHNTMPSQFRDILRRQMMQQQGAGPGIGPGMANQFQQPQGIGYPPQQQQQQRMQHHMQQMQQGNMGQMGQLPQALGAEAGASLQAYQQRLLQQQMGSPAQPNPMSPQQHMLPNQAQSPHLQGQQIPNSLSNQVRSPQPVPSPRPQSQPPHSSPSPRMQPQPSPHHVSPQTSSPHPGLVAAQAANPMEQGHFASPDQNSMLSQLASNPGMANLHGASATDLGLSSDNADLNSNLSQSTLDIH

## COc1cccc(CNC(=O)N2C3CN(Cc4cc(Cl)cc(Cl)c4N(C)C)C(=O)[C@H](Cc4ccc(O)cc4)N3C(=O)CN2C)c1OC (stereo partly drawn) [YH250]
Bone marrow HSPC; bone marrow from 8.5Gy irradiated animals
  engraftment level vs DMSO treated animals: similar
Bone marrow HSPC; one dose 24 hours post lethal dose radiation
  HSPC exhaustion: does not exhaust HSPC
Mouse bone marrow cells
  LSK 48 − 150+ %: 16%
  LSK 135 + 34+ %: 67%
  LSK 135 + 34+ Cell#: 4263
  LSK 135 − 34+ %: 25%
  LSK 135 − 34+ Cell#: 1602
  LSK 135 − 34− %: 7%
  LSK 135 − 34− Cell#: 445
  LSK %: 16%
  LSK Cell#: 6340
  Lin-neg %: 20%
  Lin-neg Cell#: 40015
Mouse bone marrow cells; DMSO 607
  LSK 48 − 150+ Cell#: 992
[1]
  Axin2 gene expression: up regulated
  survivin gene expression: up regulated
Bone marrow HSC
  lineage bias in short-term and long-term repopulation: no lineage bias
R1 mESCs; Wnt3a and 200 nM YH250
  pluripotency markers Oct4, Nanog, Sox2, SSEA-1 and ALP: all expressed
R1 mESCs; with 50 ng/ml Wnt3a or 3 μM CHIR99021, 500 nM YH249 or 200 nM YH250, 5 days
  mESC pluripotency: maintain pluripotency
[2]
  β-catenin in the p300 pull down lane: significantly decreased levels of β-catenin
Cord blood cells
  human CD34posit cells in blood vs DMSO treated cells: more human CD34posit cells
